Columns and labels:
[1] = tested on: SKM-1; experiment: Antiproliferative activity against human SKM1 cells assessed as reduction in cell viability after 5 days by CellTiter-Glo assay; type: functional, cell-based; details: SKM-1, 120 h
[2] = tested on: NCI-H1299; experiment: Antiproliferative activity against human H1299 cells assessed as reduction in cell viability after 5 days by CellTiter-Glo assay; type: functional, cell-based; details: NCI-H1299, 120 h
[3] = Unbound hepatic clearance in human liver microsomes; type: ADME, Microsome
[4] = Unbound hepatic clearance in mouse liver microsomes; type: ADME, Microsome
[5] = Unbound hepatic clearance in rat liver microsomes; type: ADME, Microsome
[6] = Permeability in dog MDCK cells by PAMPA; type: ADME, cell-based, Canis lupus familiaris; details: read-out: permeability
[7] = Oral bioavailability in mouse at 1 mg/kg; type: ADME, organism-based; details: in vivo
[8] = AUC in dog at 0.3 mg/kg, po; type: ADME, organism-based, Canis lupus familiaris; details: in vivo
[9] = AUC in mouse at 1 mg/kg, po; type: ADME, organism-based; details: in vivo
[10] = AUC in rat at 1 mg/kg, po; type: ADME, organism-based; details: in vivo
[11] = Half life in rat at 1 mg/kg, po; type: ADME, organism-based; details: in vivo
[12] = Half life in dog at 0.3 mg/kg, po; type: ADME, organism-based, Canis lupus familiaris; details: in vivo
[13] = Half life in mouse at 1 mg/kg, po; type: ADME, organism-based; details: in vivo
[14] = Clearance in dog plasma at 0.1 mg/kg, iv; type: ADME, organism-based, Canis lupus familiaris
[15] = Clearance in mouse plasma at 1 mg/kg, iv; type: ADME, organism-based
[16] = Clearance in rat plasma at 1 mg/kg, iv; type: ADME, organism-based
[17] = AUC in dog at 0.1 mg/kg, iv; type: ADME, organism-based, Canis lupus familiaris; details: in vivo
[18] = AUC in mouse at 1 mg/kg, iv; type: ADME, organism-based; details: in vivo
[19] = AUC in rat at 1 mg/kg, iv; type: ADME, organism-based; details: in vivo
[20] = Volume of distribution at steady state in rat at 1 mg/kg, iv; type: ADME, organism-based; details: in vivo, read-out: Vdss
[21] = Volume of distribution at steady state in dog at 0.1 mg/kg, iv; type: ADME, organism-based, Canis lupus familiaris; details: in vivo, read-out: Vdss
[22] = Volume of distribution at steady state in mouse at 1 mg/kg, iv; type: ADME, organism-based; details: in vivo, read-out: Vdss
[23] = AUC in monkey at 0.3 mg/kg, po; type: ADME, organism-based, Macaca mulatta; details: rhesus monkey, in vivo
[24] = Half life in dog at 0.1 mg/kg, iv; type: ADME, organism-based, Canis lupus familiaris; details: in vivo
[25] = Half life in mouse at 1 mg/kg, iv; type: ADME, organism-based; details: in vivo
[26] = Half life in rat at 1 mg/kg, iv; type: ADME, organism-based; details: in vivo
[27] = Oral bioavailability in rat at 1 mg/kg; type: ADME, organism-based; details: in vivo
[28] = Oral bioavailability in dog at 0.3 mg/kg; type: ADME, organism-based, Canis lupus familiaris; details: in vivo
[29] = Oral bioavailability in monkey at 0.3 mg/kg; type: ADME, organism-based, Macaca mulatta; details: rhesus monkey, in vivo
[30] = target: T1, Bromodomain testis-specific protein (Homo sapiens, UniProt Q58F21); experiment: Inhibition of BRDT BD1 (unknown origin) after 1 hr by TR-FRET assay
[31] = target: T1, Bromodomain testis-specific protein; experiment: Inhibition of BRDT BD2 (unknown origin) after 1 hr by TR-FRET assay
[32] = Half life in monkey at 0.3 mg/kg, iv; type: ADME, organism-based, Macaca mulatta; details: rhesus monkey, in vivo
[33] = Volume of drug distribution in monkey at 0.3 mg/kg, iv; type: ADME, organism-based, Macaca mulatta; details: rhesus monkey, in vivo, read-out: Vdss
[34] = AUC in monkey at 0.3 mg/kg, iv; type: ADME, organism-based, Macaca mulatta; details: rhesus monkey, in vivo
[35] = Clearance in monkey plasma at 0.3 mg/kg, iv; type: ADME, organism-based, Macaca mulatta; details: rhesus monkey
[36] = Tmax in mouse at 1 mg/kg, po; type: ADME, organism-based; details: in vivo
[37] = Tmax in rat at 1 mg/kg, po; type: ADME, organism-based; details: in vivo
[38] = Tmax in dog at 1 mg/kg, po; type: ADME, organism-based, Canis lupus familiaris; details: in vivo
[39] = Tmax in monkey at 1 mg/kg, po; type: ADME, organism-based, Macaca mulatta; details: rhesus monkey, in vivo
[40] = Cmax in mouse at 1 mg/kg, po; type: ADME, organism-based; design: dose 1 mg/kg, route oral; details: in vivo
[41] = Cmax in rat at 1 mg/kg, po; type: ADME, organism-based; design: dose 1 mg/kg, route oral; details: in vivo
[42] = Cmax in dog at 1 mg/kg, po; type: ADME, organism-based, Canis lupus familiaris; design: dose 1 mg/kg, route oral; details: in vivo
[43] = Cmax in monkey at 1 mg/kg, po; type: ADME, organism-based, Macaca mulatta; design: dose 1 mg/kg, route oral; details: rhesus monkey, in vivo
[44] = Fraction of drug absorbed in mouse portal vein in mouse at 1 mg/kg, po; type: ADME, organism-based; details: in vivo
[45] = Fraction of drug absorbed in mouse portal vein in rat at 1 mg/kg, po; type: ADME, organism-based; details: in vivo
[46] = Fraction of drug absorbed in mouse portal vein in dog at 1 mg/kg, po; type: ADME, organism-based, Canis lupus familiaris; details: in vivo
[47] = Fraction of drug absorbed in mouse portal vein in monkey at 1 mg/kg, po; type: ADME, organism-based, Macaca mulatta; details: rhesus monkey, in vivo
[48] = Half life in monkey at 0.3 mg/kg, po; type: ADME, organism-based, Macaca mulatta; details: rhesus monkey, in vivo

CCNC(=O)c1cc2c(-c3cc(C(C)(C)O)ccc3Oc3c(C)cc(F)cc3C)cn(C)c(=O)c2[nH]1 [ABBV-744]
IC50 [1]: 6.7 nM
IC50 [2]: 1600 nM
CL free [3]: 143 mL/min/kg
CL free [4]: 750 mL/min/kg
CL free [5]: 200 mL/min/kg
Papp [6]: 2 ×10⁻⁶ cm/s
bioavailability [7]: 58%
AUC [8]: 1050 ng·h/mL
AUC [9]: 2350 ng·h/mL
AUC [10]: 120 ng·h/mL
half-life [11]: 3.4 h
half-life [12]: 4.2 h
half-life [13]: 2.8 h
clearance [14]: 4 mL/min/kg
clearance [15]: 4.83 mL/min/kg
clearance [16]: 11.2 mL/min/kg
AUC [17]: 460 ng·h/mL
AUC [18]: 3800 ng·h/mL
AUC [19]: 500 ng·h/mL
Vd [20]: 5.3 L/kg
Vd [21]: 1.5 L/kg
Vd [22]: 1.3 L/kg
AUC [23]: 14 ng·h/mL
half-life [24]: 4.4 h
half-life [25]: 3 h
half-life [26]: 2.9 h
bioavailability [27]: 24%
bioavailability [28]: 77%
bioavailability [29]: 7%
Ki [30]: 917 nM
Ki [31]: 1 nM
half-life [32]: 2 h
Vd [33]: 3.4 L/kg
AUC [34]: 200 ng·h/mL
clearance [35]: 25.7 mL/min/kg
Tmax [36]: 6 min
Tmax [37]: 7.5 min
Tmax [38]: 2.8 h
Tmax [39]: 1.5 h
Cmax [40]: 210 ng/mL
Cmax [41]: 12 ng/mL
Cmax [42]: 116 ng/mL
Cmax [43]: 5 ng/mL
FaFg [44]: 81
FaFg [45]: 52
FaFg [46]: 87
FaFg [47]: 19
half-life [48]: 2.5 h
